Reference: PMC7795171, “In Silico and In Vitro Analysis of Major Cannabis-Derived Compounds as Fatty Acid Amide Hydrolase Inhibitors” (Molecules, 2020)
Read-outs that look alike come from different tables or passages of the source.

Legend:
hFAAH = target: T1, hFAAH (Homo sapiens, UniProt O00519); test: FAAH activity assay, purified human FAAH, [14C]AEA hydrolysis; type: biochemical
T1 construct: purchased Cayman Chemical Company
T1 sequence (O00519 1-579): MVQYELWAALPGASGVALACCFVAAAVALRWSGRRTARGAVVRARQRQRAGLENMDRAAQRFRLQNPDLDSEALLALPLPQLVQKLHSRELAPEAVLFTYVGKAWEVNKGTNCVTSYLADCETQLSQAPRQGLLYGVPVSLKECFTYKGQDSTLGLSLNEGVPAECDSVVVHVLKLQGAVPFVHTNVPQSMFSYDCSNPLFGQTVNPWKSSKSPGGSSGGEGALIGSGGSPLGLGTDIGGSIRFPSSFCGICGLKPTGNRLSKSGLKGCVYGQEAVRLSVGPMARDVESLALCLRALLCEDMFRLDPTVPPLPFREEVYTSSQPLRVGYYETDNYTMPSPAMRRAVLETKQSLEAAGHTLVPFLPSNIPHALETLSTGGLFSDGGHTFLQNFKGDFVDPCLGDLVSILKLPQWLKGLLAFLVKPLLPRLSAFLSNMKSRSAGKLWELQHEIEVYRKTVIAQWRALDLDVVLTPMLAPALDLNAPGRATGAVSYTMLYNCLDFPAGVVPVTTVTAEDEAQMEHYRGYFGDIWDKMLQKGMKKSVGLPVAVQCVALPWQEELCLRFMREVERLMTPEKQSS
Experimental: (§1) Rat brains were homogenized in 50 mM Tris-HCl (50 mM, pH 7.4), and were centrifuged sequentially at 800× g and 20,000× g; then, the supernatants were discharged, and rFAAH activity was tested in membrane preparations incubated with 10 µM [^14C]AEA at 37 °C for 15 min (pH = 9.0). The reaction was stopped with a 1:1 (v/v) mixture of chloroform/methanol and the release of [^14C]ethanolamine in the aqueous phase was measured as reported. Purified human FAAH was assayed in the same way as rFAAH.

rFAAH = target: T2, rFAAH (Rattus norvegicus, UniProt P97612); test: FAAH activity assay, rat brain membranes, [14C]AEA hydrolysis; type: biochemical; conditions: for % In Vitro Inhibition (At 100 µm): rFAAH, compound at 100 µm
T2 construct: from tissue; host or cells: rat brain membranes
T2 sequence (P97612 1-579): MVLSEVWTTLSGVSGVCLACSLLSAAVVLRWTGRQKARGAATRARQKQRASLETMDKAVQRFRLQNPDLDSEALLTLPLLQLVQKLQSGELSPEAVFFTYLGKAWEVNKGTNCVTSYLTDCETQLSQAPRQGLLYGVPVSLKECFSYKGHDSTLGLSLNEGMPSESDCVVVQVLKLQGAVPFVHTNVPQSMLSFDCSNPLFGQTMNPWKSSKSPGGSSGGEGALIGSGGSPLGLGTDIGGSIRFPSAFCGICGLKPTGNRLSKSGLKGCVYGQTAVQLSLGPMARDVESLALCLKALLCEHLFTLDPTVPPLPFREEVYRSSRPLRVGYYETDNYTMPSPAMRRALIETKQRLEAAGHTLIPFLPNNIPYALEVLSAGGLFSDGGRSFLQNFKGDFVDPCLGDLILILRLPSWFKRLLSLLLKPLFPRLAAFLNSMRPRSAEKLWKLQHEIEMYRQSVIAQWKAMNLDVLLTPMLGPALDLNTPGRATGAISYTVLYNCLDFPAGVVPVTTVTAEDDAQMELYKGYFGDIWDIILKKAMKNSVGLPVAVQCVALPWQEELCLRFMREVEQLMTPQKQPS
Experimental: as §1

TRPA1 channels = tested on: TRPA1 channels; parameters: method as in PMID 21726418; conditions: read-out: EC50, agonist of TRPA1 channels; cited from earlier work
FAAH = tested on: FAAH; parameters: method as in PMID 21392988; conditions: non-covalent inhibitor co-crystallized in 3QK5; read-out: half-maximal inhibitory concentration (IC50); cited from earlier work
[1] = purified human FAAH, 10 µM [14C]AEA, 37 °C, 15 min, pH 9.0, dose-response 0–100 µM, read-out: IC50 Towards hFAAH
[2] = rat brain membranes, 10 µM [14C]AEA, 37 °C, 15 min, pH 9.0, dose-response 0–100 µM, read-out: IC50 Towards rFAAH

## C=C1CC/C=C(\C)CC[C@@H]2[C@@H]1CC2(C)C [BCP, β-caryophyllene]
hFAAH; [1]
  IC50: > 100 µM
rFAAH
  % In Vitro Inhibition (At 100 µm): 18%
rFAAH; [2]
  IC50: > 100 µM

## CCCCCc1cc(O)c2c(c1)OC(C)(CCC=C(C)C)C=C2 (stereo not shown) [CBC, cannabichromene]
hFAAH; [1]
  IC50: > 100 µM
rFAAH
  % In Vitro Inhibition (At 100 µm): 51%
rFAAH; [2]
  IC50: ~100 µM
TRPA1 channels
  EC50: 0.09 µM

## C=C(C)[C@@H]1CCC(C)=C[C@H]1c1c(O)cc(CCCCC)cc1O [CBD, cannabidiol, reference compound]
hFAAH; [1]
  IC50: > 100 µM

## CCCCCc1cc(O)c(C/C=C(\C)CCC=C(C)C)c(O)c1 [CBG, cannabigerol]
hFAAH; [1]
  IC50: > 100 µM
rFAAH
  % In Vitro Inhibition (At 100 µm): 53%
rFAAH; [2]
  IC50: ~100 µM

## CCCCCc1cc(O)c2c(c1)OC(C)(C)c1ccc(C)cc1-2 [CBN, cannabinol]
hFAAH
  IC50: ~100 µM
rFAAH
  IC50: 60 ± 10 µM
  % In Vitro Inhibition (At 100 µm): 65%

## Cc1c([C@H]2CCCN(c3nccc(-c4cc5ccccc5s4)n3)C2)c2cccnc2n1CC#N [QK5]
FAAH
  IC50: 0.018 µM

## CCCc1cc(O)c2c(c1)OC(C)(C)[C@@H]1CCC(C)=C[C@@H]21 [THCV, Δ^9-tetrahydrocannabivarin]
hFAAH
  IC50: > 100 µM
rFAAH
  IC50: > 100 µM
  % In Vitro Inhibition (At 100 µm): 30%

## NC(=O)c1cccc(-c2cccc(OC(=O)NC3CCCCC3)c2)c1 [URB597, reference compound]
hFAAH; read-out: Inhibition of hFAAH activity compared to controls
  inhibition at 10 µM: > 99.5%
